In PMC8247773, “Benzohydrazide and Phenylacetamide Scaffolds: New Putative ParE Inhibitors” (Frontiers in Bioengineering and Biotechnology, 2021):
Values after ≈ are worked out from the molar mass of the structure shown. Values joined by “and” are separate entries in the source; they are usually repeats but may differ in a detail not shown here. Identical values can stand only once. Like-named read-outs stand apart in the source and are kept apart here.

Columns and labels:
[1] = test system: preformed E. coli biofilm (NCIM 2065); assay: E. coli antibiofilm activity (crystal violet); assay type: cell-based, Escherichia coli; details: 10× MIC, 24 h
[2] = test system: Pseudomonas aeruginosa (NCIM 2036); parameters: method as in Yele et al., 2020, 2021; details: ref Yele et al., 2020, 2021; cited from earlier work
[3] = test system: Klebsiella pneumonia (NCIM 2706); parameters: method as in Yele et al., 2020, 2021; details: ref Yele et al., 2020, 2021; cited from earlier work
MRSA (ATCC43300) [4] = assay: Minimum bactericidal concentration (MBC); assay type: cell-based, methicillin-resistant Staphylococcus aureus
Method: (§1) MBC can be defined as the minimum concentration of a compound required to kill the bacteria over a fixed period under precise conditions. […] Colonies were counted, and colony forming unit (CFU) per milliliter was calculated.

MRSA (NCIM 5021) [5] = assay: Minimum bactericidal concentration (MBC); assay type: cell-based, methicillin-resistant Staphylococcus aureus
Method: as §1

Vero cells [6] = test system: Vero cells
[7] = test system: Staphylococcus epidermis (NCIM 2493); parameters: method as in Yele et al., 2020, 2021; details: ref Yele et al., 2020, 2021; cited from earlier work
MRSA (NCIM 5021) [8] = assay: Antibacterial susceptibility test, microbroth dilution MIC; assay type: cell-based, methicillin-resistant Staphylococcus aureus; details: mean ± SD; for MIC: Staphylococcus aureus, read-out: Minimum inhibitory concentration
[9] = test system: Staphylococcus aureus (NCIM 5022); parameters: method as in Yele et al., 2020, 2021; details: ref Yele et al., 2020, 2021; cited from earlier work
Vero cells [10] = assay: In vitro cytotoxicity MTT assay; details: CC50 Vero cells / IC50
[11] = test system: Escherichia coli (NCIM 2567); parameters: method as in Yele et al., 2020, 2021; details: ref Yele et al., 2020, 2021; cited from earlier work
MRSA (ATCC43300) [12] = assay: Antibacterial susceptibility test, microbroth dilution MIC; assay type: cell-based, methicillin-resistant Staphylococcus aureus; details: mean ± SD; for MIC: Staphylococcus aureus, read-out: Minimum inhibitory concentration
[13] = test system: Escherichia coli (NCIM 2065); assay: Minimum bactericidal concentration (MBC); assay type: cell-based; details: E. Coli (NCIM 2065); for MBC/MIC: ratio ≤2 bactericidal, ≥4 tolerance
Method: as §1

E. coli ParE enzyme = target: T1, E. coli ParE enzyme (Escherichia coli, UniProt P20083); assay: E. coli ParE ATPase enzyme inhibition assay (ProFoldin kit, malachite green); assay type: biochemical; details: ATPase activity, mean ± SD (n = 3)
T1 construct: purchased ProFoldin, Hudson, United States
T1 sequence (P20083 whole entry): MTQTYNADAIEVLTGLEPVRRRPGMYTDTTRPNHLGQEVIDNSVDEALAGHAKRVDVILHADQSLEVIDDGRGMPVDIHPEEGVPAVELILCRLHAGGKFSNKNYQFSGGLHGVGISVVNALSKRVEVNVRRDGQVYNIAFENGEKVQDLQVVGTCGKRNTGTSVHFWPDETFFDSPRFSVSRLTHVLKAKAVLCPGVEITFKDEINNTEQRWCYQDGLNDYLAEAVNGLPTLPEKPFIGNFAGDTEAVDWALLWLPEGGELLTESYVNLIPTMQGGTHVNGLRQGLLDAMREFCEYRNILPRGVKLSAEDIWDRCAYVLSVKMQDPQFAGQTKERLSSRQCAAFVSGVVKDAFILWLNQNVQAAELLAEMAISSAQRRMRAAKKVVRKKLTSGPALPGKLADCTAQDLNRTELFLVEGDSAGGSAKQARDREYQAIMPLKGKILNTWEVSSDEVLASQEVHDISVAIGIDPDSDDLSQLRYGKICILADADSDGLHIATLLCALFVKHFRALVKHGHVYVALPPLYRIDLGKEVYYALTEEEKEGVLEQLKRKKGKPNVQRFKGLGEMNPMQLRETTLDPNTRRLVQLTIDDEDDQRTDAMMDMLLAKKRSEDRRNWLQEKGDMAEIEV
T1 sequence (P0AFI2 whole entry, further chain): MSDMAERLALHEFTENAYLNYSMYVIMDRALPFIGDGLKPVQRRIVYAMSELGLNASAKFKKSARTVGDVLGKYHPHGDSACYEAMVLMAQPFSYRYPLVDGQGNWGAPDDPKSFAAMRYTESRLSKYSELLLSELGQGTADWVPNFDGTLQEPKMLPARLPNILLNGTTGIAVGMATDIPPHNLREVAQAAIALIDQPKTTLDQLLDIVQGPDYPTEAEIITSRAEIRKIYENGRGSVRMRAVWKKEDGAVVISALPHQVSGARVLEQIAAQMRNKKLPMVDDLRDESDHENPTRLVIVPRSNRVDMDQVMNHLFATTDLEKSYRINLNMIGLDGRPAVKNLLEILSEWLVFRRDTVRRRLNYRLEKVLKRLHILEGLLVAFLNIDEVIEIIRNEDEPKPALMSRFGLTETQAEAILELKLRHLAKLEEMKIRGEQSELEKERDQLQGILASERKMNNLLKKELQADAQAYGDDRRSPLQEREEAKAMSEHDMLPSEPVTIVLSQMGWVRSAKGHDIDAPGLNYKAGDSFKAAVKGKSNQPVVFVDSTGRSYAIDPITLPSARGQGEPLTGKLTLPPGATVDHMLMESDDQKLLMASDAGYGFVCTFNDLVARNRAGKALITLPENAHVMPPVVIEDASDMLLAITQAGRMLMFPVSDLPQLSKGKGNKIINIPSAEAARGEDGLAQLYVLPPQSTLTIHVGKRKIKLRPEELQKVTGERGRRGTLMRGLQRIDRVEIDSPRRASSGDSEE
Method: The assay was performed as per the standard protocol provided by the ProFoldin. […] ParE hydrolyzes ATP as the source of molecular energy to perform decatenation reactions. Fluoroquinolones and aminocoumarins usually block ATPase activity to hinder the biological activities of topoisomerase II. Thus, the topoisomerase ATPase assay can be used for high-throughput screening of topoisomerase inhibitors. The ATPase activity of the E. coli ParE enzyme was based on the detection of inorganic phosphate produced by the hydrolysis of ATP in the presence of DNA. The phosphate is detected using a microplate reader at an absorbance wavelength of 650 nm. The selected compounds were tested for the inhibition of ATPase activity of ParE enzyme. […] The reaction mixture was incubated for 1 h at 37°C and then quenched with 45 μL of Dye. Incubate for 5 min, and the absorbance was measured at 650 nm. The IC50 values were determined from the absorbance readings using no enzyme and no compound controls. They were calculated using the non-linear regression curve fit method.

[14] = test system: Mycobacterium tuberculosis (NCIM 2984); parameters: method as in Yele et al., 2020, 2021; details: ref Yele et al., 2020, 2021; cited from earlier work
[15] = test system: Salmonella typhi (NCIM 2501); parameters: method as in Yele et al., 2020, 2021; details: ref Yele et al., 2020, 2021; cited from earlier work
[16] = test system: Bacillus subtilis (NCIM 2545); parameters: method as in Yele et al., 2020, 2021; details: ref Yele et al., 2020, 2021; cited from earlier work
[17] = test system: Escherichia coli (NCIM 2065); assay: Antibacterial susceptibility test, microbroth dilution MIC; assay type: cell-based; details: E. Coli (NCIM 2065), mean ± SD; for MIC: Escherichia coli, NCIM2065, read-out: Minimum inhibitory concentration
[18] = In vitro cytotoxicity MTT assay; details: African green monkey, Vero cells
E. coli [19] = assay: Post antibiotic effect (PAE); assay type: cell-based, Escherichia coli; details: for Time for 1 log10: untreated control 2 h
E. coli [20] = assay: Checkerboard synergy with FDA approved drugs; assay type: cell-based, Escherichia coli

Row | Structure (SMILES) | Minimum inhibitory concentration (MIC) P. a [2] | Minimum inhibitory concentration (MIC) K. p [3] | MBC (MRSA (ATCC43300) [4]) | MBC/MIC (MRSA (ATCC43300) [4]) | MBC (MRSA (NCIM 5021) [5]) | MBC/MIC (MRSA (NCIM 5021) [5]) | Minimum inhibitory concentration (MIC) S. e [7] | Minimum inhibitory concentration (MRSA (NCIM 5021) [8]) | Minimum inhibitory concentration (MIC) S. a [9] | Minimum inhibitory concentration (MIC) E. c [11] | Minimum inhibitory concentration (MRSA (ATCC43300) [12]) | MBC [13] | MBC/MIC [13] | IC50 against E. coli ParE enzyme (E. coli ParE enzyme) | Minimum inhibitory concentration (MIC) M. t [14] | Minimum inhibitory concentration (MIC) S. t [15] | Minimum inhibitory concentration (MIC) B. s [16] | Minimum inhibitory concentration [17] | also measured
1 | CC1(C)S[C@@H]2[C@H](NC(=O)[C@H](N)c3ccccc3)C(=O)N2[C@H]1C(=O)O [ampicillin] | – | – | – | – | – | – | – | – | – | – | – | – | – | – | – | – | – | – | reduction in biofilm [1]: 63%
2 | O=C(COc1ccccc1NC(=O)CCl)Nc1ccc(C(=O)O)cc1 [Compound 3] | 0.67 | 0.75 | 1.79 ± 0.21 µg/mL (≈ 4.93 µM) | 1 | 1.84 ± 0.13 µg/mL (≈ 5.07 µM) | 1 | 3.04 | 1.84 ± 0.13 µg/mL (≈ 5.07 µM) | 4.23 | 0.82 | 1.79 ± 0.21 µg/mL (≈ 4.93 µM) | 1.75 ± 0.09 µg/mL (≈ 4.82 µM) | 1 | 0.95 ± 0.09 µg/mL (≈ 2.62 µM) | 2.31 | 1.52 | 6.30 | 1.81 ± 0.15 µg/mL (≈ 4.99 µM) | CC50 (Vero cells [6]): 178.8742 µg/mL (≈ 493 µM); SI (CC50/IC50) (Vero cells [10]): 188.2886
3 | O=C(CSc1nc2ccccc2s1)Nc1ccc(C(=O)O)cc1[N+](=O)[O-] [Compound 25] | 2.60 | 1.86 | – | – | – | 3 | 0.79 | – | 0.85 | 3.86 | – | – | 3 | – | 5.17 | – | 1.72 | 0.72 ± 0.05 µg/mL (≈ 1.85 µM) | MBC (MRSA (NCIM 5021) [5]; Staphylococcus aureus, read-out: MBC): 8.37 ± 0.17 µg/mL (≈ 21.5 µM); MIC (MRSA (NCIM 5021) [8]): 0.86 ± 0.13 µg/mL (≈ 2.21 µM); CC50 at 48 h [18]: 194 µg/mL (≈ 498 µM); MIC (MRSA (ATCC43300) [12]): 1.11 ± 0.12 µg/mL (≈ 2.85 µM); MBC ([13]; Escherichia coli, NCIM2065, read-out: MBC): 7.09 ± 0.02 µg/mL (≈ 18.2 µM); IC50 (E. coli ParE enzyme; read-out: IC50 against E. coli ParE enzyme (converted)): 719 nM; MIC [17]: 0.72 µg/mL (≈ 1.85 µM)
4 | O=C(COc1ccccc1NC(=O)CCl)Nc1ccccc1 [Compound 9] | 3.35 | 3.81 | 6.29 ± 0.08 µg/mL (≈ 19.7 µM) | 4 | 4.70 ± 0.41 µg/mL (≈ 14.7 µM) | 3 | 0.98 | 1.71 ± 0.16 µg/mL (≈ 5.36 µM) | 1.52 | 4.25 | 1.75 ± 0.21 µg/mL (≈ 5.49 µM) | 3.68 ± 0.29 µg/mL (≈ 11.5 µM) | 2 | 2.80 µg/mL (≈ 8.78 µM) | 8.65 | 2.35 | 4.42 | 1.64 ± 0.10 µg/mL (≈ 5.14 µM) | –
5 | O=C(COc1ccccc1NC(=O)CCl)Nc1ccc([N+](=O)[O-])cc1 [Compound 1] | 0.69 | 0.78 | 0.99 ± 0.24 µg/mL (≈ 2.72 µM) | 1 | 0.84 ± 0.13 µg/mL (≈ 2.31 µM) | 1 | 2.98 | 0.84 ± 0.13 µg/mL (≈ 2.31 µM) | 2.56 | 0.75 | 0.99 ± 0.24 µg/mL (≈ 2.72 µM) | 1.42 ± 0.02 µg/mL (≈ 3.9 µM) | 2 | 0.99 ± 0.01 µg/mL (≈ 2.72 µM) | 3.85 | – | 3.62 | 0.72 µg/mL and 0.72 ± 0.07 µg/mL | CC50 (Vero cells [6]): 213.9002 µg/mL (≈ 588 µM); SI (CC50/IC50) (Vero cells [10]): 216.0608
6 | Cc1ccc(C(=O)NNC(=O)COc2ccc3ccccc3c2)cc1 [Compound 22] | 0.82 | 0.81 | 0.76 ± 0.06 µg/mL (≈ 2.27 µM) | 1 | 0.90 ± 0.04 µg/mL (≈ 2.69 µM) | 1 | 1.04 | 0.90 ± 0.04 µg/mL (≈ 2.69 µM) | 1.16 | 1.23 | 0.76 ± 0.06 µg/mL (≈ 2.27 µM) | 0.89 ± 0.01 µg/mL (≈ 2.66 µM) | 1 | 1.01 µg/mL (≈ 3.02 µM) | 0.89 | 0.77 | 3.63 | 0.89 ± 0.01 µg/mL (≈ 2.66 µM) | –
7 | Cc1ccc(C(=O)NNC(=O)COc2ccccc2NC(=O)CCl)cc1 [Compound 12] | 1.45 | 0.67 | 0.96 ± 0.14 µg/mL (≈ 2.55 µM) | 1 | 4.4 ± 0.15 µg/mL (≈ 11.7 µM) | 2 | 2.35 | 2.65 ± 0.46 µg/mL (≈ 7.05 µM) | 3.12 | 1.26 | 0.96 ± 0.14 µg/mL (≈ 2.55 µM) | 0.86 ± 0.03 µg/mL (≈ 2.29 µM) | 1 | 2.34 µg/mL (≈ 6.23 µM) | 3.21 | 1.98 | 3.72 | 0.86 ± 0.03 µg/mL (≈ 2.29 µM) | –
8 | O=C(O)c1cn(C2CC2)c2cc(N3CCNCC3)c(F)cc2c1=O [Ciprofloxacin] | 0.67 | 0.63 | – | – | – | – | 0.74 | – | 0.68 | 0.97 | – | – | – | – | 0.60 | – | 0.81 | – | reduction in biofilm [1]: 86%; MIC (MRSA (NCIM 5021) [8]): 0.67 ± 0.02 µg/mL (≈ 2.02 µM); PAE = T - C (E. coli [19]; 1 × mic): 1 h; Time for 1 log10 (E. coli [19]; 1 × mic): 3 h; PAE = T - C (E. coli [19]; 10 × mic): 2 h; Time for 1 log10 (E. coli [19]; 10 × mic): 4 h; MIC (MRSA (ATCC43300) [12]): 0.7 ± 0.03 µg/mL (≈ 2.11 µM); FIC B (E. coli [20]; FIC of the drug in combination with compound 5): 0.1556; FIC B (E. coli [20]; FIC of the drug in combination with compound 21): 0.1589; Inference (E. coli [20]; drug combined with compound 5): Synergistic (synergistic when the ΣFICs is ≤ 0.5); ΣFIC A + FIC B (E. coli [20]; drug combined with compound 5): 0.3162; Inference (E. coli [20]; drug combined with compound 21): Synergistic (synergistic when the ΣFICs is ≤ 0.5); ΣFIC A + FIC B (E. coli [20]; drug combined with compound 21): 0.3614; MIC [17]: 0.62 ± 0.015 µg/mL (≈ 1.87 µM)
9 | O=C(COc1ccccc1NC(=O)CCl)Nc1ccc(Cl)cc1 [Compound 2] | 2.59 | 2.95 | 2.71 ± 0.21 µg/mL (≈ 7.67 µM) | 2 | 4.8 ± 0.21 µg/mL (≈ 13.6 µM) | 2 | 0.92 | 2.41 ± 0.65 µg/mL (≈ 6.82 µM) | 0.69 | 2.45 | 1.34 ± 0.49 µg/mL (≈ 3.79 µM) | 2.00 ± 0.01 µg/mL (≈ 5.66 µM) | 2 | 2.33 µg/mL (≈ 6.6 µM) | 4.52 | 2.56 | 0.72 | 1.01 ± 0.19 µg/mL (≈ 2.86 µM) | –
